Laboratory results as given in patent publication EP4763221A1, “COMPOUND AND ANTIBODY-DRUG CONJUGATE COMPRISING SAME” (priority 2023, dated 2025).

Experiments:
[1] = system: HCC827 human lung cancer cell xenograft tumor; assay: In vivo efficacy in xenograft tumor model; parameters: species or system CB-17 SCID mice; details: 3 mg/kg and 1.5 mg/kg, IV, weekly×3, compared to isotype control antibody
Text: To determine the anti-tumor activity of the anti-HER3 antibody-drug conjugates in vivo, HCC827 human lung cancer cells (purchased from GuangZhou Jennio Biotech Co., Ltd.) were first inoculated subcutaneously into 5- to 8-week-old female CB-17 SCID mice (purchased from Guangdong Model Organisms Center, Inc.) on the upper posterior region of the right hind thigh. The day of grouping was defined as D0. The route of administration was intravenous injection (iv), once a week for a total of 3 doses. After the administration, the length and width of the tumors in each group were measured, and the tumor volume was calculated. Table 7: Dosing regimen of anti-HER3 antibody-drug conjugates for treatment of CB-17 SCID mouse model of HCC827 human lung cancer cell xenograft tumor

MDA-MB-453 cells [2] = assay: FACS assay for internalization activity in MDA-MB-453 cells; type: cell-based; details: 100 nM, 37 °C for 1 h, 3 h and 5 h, compared to isotype control IgG-Dxd
Experimental: MDA-MB-453 cells (purchased from Cobioer Biosciences Co., Ltd., Cat. No. CBP60386) were collected, counted, and determined for cell viability. The cell suspension was added to a 96-well low-adsorption plate at 1 × 10^5 cells/sample and centrifuged at 750× g for 5 min. The supernatant was discarded. 100 µL of the experimental drug (at a working concentration of 100 nM) was added, with an isotype control (IgG-Dxd, at a working concentration of 100 nM) designed in parallel. The mixture was mixed uniformly and incubated in an incubator at 37 °C for 1 h, 3 h, and 5 h. After the incubation was completed, 1% PBSA (PBS + 1% BSA) was added, and the mixture was centrifuged at 750× g for 5 min. The supernatant was discarded, and the cells were washed twice with 1% PBSA. 100 µL of patritumab (at a working concentration of 100 nM) was added, and the mixture was incubated on ice for 30 min. 1% PBSA (PBS + 1% BSA) was added, and the mixture was centrifuged at 750× g for 5 min. The supernatant was discarded, and the cells were further washed twice with 1% PBSA. 100 µL of 300-fold diluted fluorescent antibody Mouse Anti-Human IgG Fc-Alexa Fluor 647 (Southern Biotech, Cat. No. 9040-31) was added, and the cell pellet was resuspended and incubated on ice for 30 min in the dark. 1% PBSA (PBS + 1% BSA) was added, and the mixture was centrifuged at 1000× g for 5 min. […]

NCI-H1781 cells = assay: Specific cell killing activity (CellTiter-Glo); type: cell-based; details: medium with 10% human ab serum, 6 days
Experimental: NCI-H1781 cells (Cobioer Biosciences Co., Ltd., Cat. No. CBP60116) were collected, and centrifuged at 1000× g for 5 min, and then the supernatant was removed. The cells were resuspended and counted, and the viability was determined. The cells were diluted, and NCI-H1781 (2500 cells/100 µL) was added to each well of a black-bottom 96-well plate. The plate was incubated in an incubator at 37 °C with 5% CO2 overnight. The experimental drug was diluted with a medium (10% human ab serum), and 100 µL of the experimental drug was added to each well according to the experimental design. A blank control was designed, with three replicate wells set for each group. The plate was incubated in an incubator at 37 °C with 5% CO2 for 6 days. After incubation, the 96-well plate was centrifuged at 350× g for 5 min, and then 135 µL of the supernatant was discarded. 60 µL of CellTiter-Glo (Promega, Cat. No. G8461) was added to each well. The plate was incubated at room temperature for 15 min. Then the […] value was detected by a multi-label microplate tester.

MDA-MB-453 cells [3] = assay: ADCC activity with PBMCs (LDH cytotoxicity detection); type: cell-based; details: 5, 15 and 45 µg/mL, PBMC effector-to-target ratio 30:1, 4 h
Experimental: MDA-MB-453 cells (purchased from Cobioer Biosciences Co., Ltd., Cat. No. CBP60386) and PBMCs (provided by Zhongshan Blood Center) in the logarithmic growth phase were collected and centrifuged at 170× g for 5 min, and the supernatant was discarded. The cell pellet was resuspended in an assay medium (RPMI-1640 containing 1% FBS), centrifuged and washed twice, and the cells were counted. The cell density was adjusted with the assay medium, and the target cell suspension was seeded into a 96-well plate (containing about 3 × 10^4 target cells/well) at 50 µL/well. Then, serially diluted drugs (5 µg/mL, 15 µg/mL, and 45 µg/mL based on the working concentration of the antibody, respectively) were added, and the plate was pre-incubated at room temperature for 1 h. After the pre-incubation was completed, the PBMC suspension was added to the sample wells at 100 µL/well (each well contained about 9 × 10^5 PBMCs with an effector-to-target ratio of 30:1), mixed uniformly, and incubated in an incubator at 37 °C with 5% CO2 for 4 h. After the incubation was completed, the 96-well plate was taken out and centrifuged at 250× g for 5 min. 100 µL of culture supernatant was carefully pipetted and transferred to another 96-well plate. […] OD values at 490 nm and 650 nm were measured. […] The ADCC activity (expressed as ADCC%) was calculated based on the measured OD value of each group. […]

## KA0013: anti-HER3 antibody-drug conjugate: patritumab conjugated via thioether bonds to Mc-AAA-Dxd (KA0012)
[1]
  growth of mouse tumors (tumor volume): effectively inhibit the growth of mouse tumors
MDA-MB-453 cells [2]
  endocytic (internalization) activity: could be endocytosed in MDA-MB-453
NCI-H1781 cells
  specific cell killing activity: specifically kill NCI-H1781 cells
MDA-MB-453 cells [3]
  ADCC activity: had ADCC activity
